Reference: article PMC12102262 (Nature Communications, 2025)

What was measured:
GID4 and ALK = GID4 and ALK (Homo sapiens, UniProt Q8IVV7+Q9UM73); experiment: NanoBRET cellular ternary complex formation assay, HEK293T cells; format: cell-based; conditions: 6 h, increasing concentrations
BaF3-EML4-ALK cells = experiment: CCK8 cell viability time course, BaF3-EML4-ALK cells; format: cell-based; conditions: 1 μM
EML4-ALK [1] = biological target: T1, EML4-ALK (Homo sapiens, UniProt Q9HC35+Q9UM73); experiment: EML4-ALK protein levels in H3122 xenograft tumors, I.P. dosing, immunoblotting; format: in vivo, nude mice; conditions: 10 mg/kg I.P. every other day, 8 doses
EML4-ALK [2] = biological target: T1, EML4-ALK; experiment: EML4-ALK degradation in BaF3-EML4-ALK cells by immunoblotting; format: cell-based; conditions: 1 μM, same time points

GID4 and ALK, sequence (Q9UM73 1094-1400 limits assumed): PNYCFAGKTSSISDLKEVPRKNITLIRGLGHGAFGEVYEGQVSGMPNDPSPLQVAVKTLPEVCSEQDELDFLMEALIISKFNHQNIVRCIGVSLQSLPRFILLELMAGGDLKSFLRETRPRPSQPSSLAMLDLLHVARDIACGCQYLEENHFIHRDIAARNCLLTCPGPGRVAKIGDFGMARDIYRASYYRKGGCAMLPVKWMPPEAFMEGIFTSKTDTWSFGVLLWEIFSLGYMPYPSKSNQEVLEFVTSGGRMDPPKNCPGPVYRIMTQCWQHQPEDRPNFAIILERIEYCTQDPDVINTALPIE
GID4 and ALK, sequence (Q8IVV7 whole entry): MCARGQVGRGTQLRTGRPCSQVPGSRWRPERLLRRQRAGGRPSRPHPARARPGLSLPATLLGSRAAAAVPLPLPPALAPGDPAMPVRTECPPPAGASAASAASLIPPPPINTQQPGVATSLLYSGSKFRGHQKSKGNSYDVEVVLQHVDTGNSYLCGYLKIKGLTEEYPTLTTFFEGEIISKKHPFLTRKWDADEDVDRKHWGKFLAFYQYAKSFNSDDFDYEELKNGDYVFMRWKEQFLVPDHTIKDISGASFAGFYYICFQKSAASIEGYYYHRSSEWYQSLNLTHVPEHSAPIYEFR

BRET signal between GID4 and ALK (GID4 and ALK): did not induce any BRET signal
effect on EML4-ALK protein levels in tumors (EML4-ALK [1]): failed to reduce
effect on levels of EML4-ALK (EML4-ALK [2]): had no effect
SMILES: COc1cc(N2CCC(N3CCN(C)CC3)CC2)ccc1Nc1ncc(Cl)c(Nc2ccccc2P(C)(C)=O)n1 [Brigatinib]
time post-treatment at which cell proliferation is inhibited (BaF3-EML4-ALK cells): 0.5 h
